According to article PMC8251916 (Chemistry (Weinheim an Der Bergstrasse, Germany), 2021):
Where two headings read alike, the source gives them in different places.

Columns and labels:
[1] = tested on: telo23-K+ (hybrid type human telomeric G4); assay: UV-Vis titration, telo23-K+; type: binding; settings: for Ka, telo23-K+: UV-Vis titration
Experimental: (§1) To obtain quantitative information on the binding of NDI 1 and PDI 3 to the previously assessed G4 and duplex DNA structures, ultraviolet‐visible absorbance spectroscopy (UV‐Vis) titrations were conducted (Figure 3 and S10). In all cases the ligand concentration was kept constant at 10 μM, whilst oligonucleotide was titrated in up to a final concentration of 30 μM. The observed binding isotherms were fitted to an independent/equivalent sites binding model, and binding constants (K a) were determined. […]
(§2) telo22-Na+ (antiparallel basket […]
(§3) telo23 and telo22 were selected as models for the human telomeric G-quadruplex under K+ and Na+ conditions, respectively, as they have been the subject of detailed structural studies,[S8,S9] […]
(§4) used. telo23 forms primarily a (3+1) hybrid structure under K+ conditions,[S8] whilst telo22 forms a single antiparallel fold.[S9]
The oligonucleotides were at a concentration of 5 µM and the buffers used were either potassium phosphate (100 mM, pH 7.4) for telo23-K+, EBR1-K+ and ds26-K+ or sodium phosphate (100 mM, pH 7.4) for telo22-Na+. The reported spectrum for each sample represents the average of 3 scans and is baseline corrected for the buffer used. Data processing was carried out using Prism 7 (GraphPad Software) with a 4-point second order smoothing polynomial applied to all spectra. Observed ellipticities were converted to molar ellipticity.
(§5) UV-Visible Absorbance Spectroscopy
Absorbance spectra were recorded on a Cary 60 UV-Visible (UV-Vis) spectrophotometer using a room-light immune fibre optic probe with 10 mm path length. The UV-Vis spectra were […]
were corrected for background and buffer absorbance. The oligonucleotides and buffer conditions were the same as employed in the CD experiments.
In the titrations, the concentration of ligand was fixed at 10 µM in an initial volume of 500 µL.
Aliquots of oligonucleotide were added using a microsyringe from a 100 µM stock solution in appropriate buffer containing also 10 µM ligand to maintain constant ligand concentration.
Note: the oligonucleotide solution was annealed by heating to 90 °C for 2 minutes and then cooling on ice prior to the addition of ligand (to avoid annealing in the presence of ligand).
Following addition, the solution was mixed thoroughly and the UV-visible spectrum was […]

[2] = tested on: telo22-Na+ (antiparallel basket human telomeric G4); assay: UV-Vis titration, telo22-Na+; type: binding
Experimental: as §1, §2, §3, §4
(§6) The oligonucleotides were at a concentration of 5 µM and the buffers used were either potassium phosphate (100 mM, pH 7.4) for telo23-K+, EBR1-K+ and ds26-K+ or sodium phosphate (100 mM, pH 7.4) for telo22-Na+. […]
as §5
(§7) Absorbance spectra were recorded on a Cary 60 UV-Visible (UV-Vis) spectrophotometer using a room-light immune fibre optic probe with 10 mm path length. […]
(§8) were corrected for background and buffer absorbance. […]

[3] = tested on: EBR1-K+ (mixed G4 from T. brucei); assay: UV-Vis titration, EBR1-K+; type: binding
Experimental: as §1, §2, §3, §4, §6, §5, §7, §8

[4] = tested on: ds26-K+ (self-complementary duplex); assay: UV-Vis titration, ds26-K+; type: binding
Experimental: as §1, §2, §3, §4, §6, §5, §7, §8

[5] = tested on: F21T-K+ (human telomeric G-quadruplex, mixed parallel/hybrid); settings: 200 nM DNA, previously reported data for 1, cited from earlier work
[6] = tested on: F21T-Na+ (human telomeric G-quadruplex, antiparallel); settings: 200 nM DNA, previously reported data for 1, ref S16, cited from earlier work
[7] = tested on: FmycT-K+ (c-Myc promoter G-quadruplex, parallel); settings: 200 nM DNA, previously reported data for 1, cited from earlier work
[8] = tested on: telo23-K+ (DNA, G4) TAGGGTTAGGGTTAGGGTTAGGG; assay: UV-Vis titration; settings: independent/equivalent sites, 10 µM ligand, DNA up to 30 µM, apparent
[9] = tested on: telo22-Na+ (DNA, G4) AGGGTTAGGGTTAGGGTTAGGG; assay: UV-Vis titration; settings: independent/equivalent sites, 10 µM ligand, DNA up to 30 µM, apparent
[10] = tested on: EBR1-K+ (DNA, G4) GGGCAGGGGGTGATGGGGAGGAGCCAGGG; assay: UV-Vis titration; settings: independent/equivalent sites, 10 µM ligand, DNA up to 30 µM, apparent
[11] = tested on: ds26-K+ (DNA, duplex) CAATCGGATCGAATTCGATCCGATTG; assay: UV-Vis titration; settings: independent/equivalent sites, 10 µM ligand, DNA up to 30 µM, apparent
[12] = tested on: EBR1-K+ (DNA, G4) GGGCAGGGGGTGATGGGGAGGAGCCAGGG; assay: CD titration; settings: 20 °C, 5 µM DNA, up to 10 equivalents ligand
[13] = tested on: F21T (DNA, G4) GGGTTAGGGTTAGGGTTAGGG; assay: FRET melting; settings: 10 mM Li cacodylate, 5 µM ligand, 200 nM DNA
[14] = tested on: FMycT (DNA, G4) TTGAGGGTGGGTAGGGTGGGTAA; assay: FRET melting; settings: 1 mM K+, 99 mM Li+; 10 mM Li cacodylate; 5 µM ligand, 200 nM DNA
[15] = tested on: F10T (DNA, hairpin, hexaethylene glycol (HEG) linker between 10 and 11) TATAGCTATATATAGCTATA; assay: FRET melting; settings: 10 mM K+, 90 mM Li+; 10 mM Li cacodylate; 5 µM ligand, 200 nM DNA
[16] = tested on: telo22-Na+ (DNA, G4) AGGGTTAGGGTTAGGGTTAGGG; assay: NMR titration; settings: 70 mM NaCl; 25 mM sodium phosphate pH 7.0, 10% D2O, 298 K; 185 µM DNA, up to 2 equivalents

SMILES	Ka, telo23-K+ [1]	Ka, telo22-Na+ [2]	Ka, EBR1-K+ [3]	Ka, ds26-K+ [4]	Ka [8]	Ka [9]	Ka [10]	Ka [11]	other results
CN1CCN(CCCN2C(=O)c3ccc4c5c(ccc(c35)C2=O)C(=O)N(CCCN2CCN(C)CC2)C4=O)CC1 [Compound 1]	6×10^6	6×10^4	2×10^6	1×10^6	6×10^6	6×10^4	2×10^6	1×10^6	ΔTm F21T-K+ ([5]; 1 µM ligand, ref S16): 10 ± 1 °C; ΔTm F21T-K+ ([5]; 5 μM ligand): 14±2 °C; ΔTm F21T-K+ ([5]; 10 µM ligand, ref S16): 20 ± 1 °C; ΔTm F21T-Na+ ([6]; 1 µM ligand): -2 ± 1 °C; ΔTm F21T-Na+ ([6]; 10 µM ligand): 2 ± 1 °C; ΔTm FmycT-K+ ([7]; 1 µM ligand, ref S16): 0 ± 1 °C; ΔTm FmycT-K+ ([7]; 5 μM ligand): 7±2 °C; ΔTm FmycT-K+ ([7]; 10 µM ligand, ref S16): 13 ± 1 °C
CN1CCN(CCCN2C(=O)c3ccc4c5ccc6c7c(ccc(c8ccc(c3c48)C2=O)c75)C(=O)N(CCCN2CCN(C)CC2)C6=O)CC1 [Compound 3]	2×10^6	8×10^5	3×10^5	5×10^4	2×10^6	8×10^5	3×10^5	5×10^4	selectivity for telo23-K+ G4 over EBR1-K+ G4 ([1]; ratio of Ka, UV-Vis): ~7 fold; selectivity for telo23-K+ G4 over ds26-K+ duplex ([1]; ratio of Ka, UV-Vis): 40 fold
CN1CCN(CCCNC(=O)c2ccc(Oc3ccc(C(C)(C)c4ccc(Oc5ccc(C(=O)NCCCN6CCN(C)CC6)c(C(=O)NCCCN6CCN(C)CC6)c5)cc4)cc3)cc2C(=O)NCCCN2CCN(C)CC2)CC1 [Compound 11]	–	–	–	–	–	–	–	–	binding [12]: yes; ΔTm ([13]; 10 mM K+, 90 mM Li+): 7±2 °C; ΔTm ([13]; 100 mM Na+): 1±1 °C; ΔTm [14]: 5±1 °C; ΔTm [15]: 0±1 °C; binding [16]: yes
